biological target: Histone deacetylase 2 (Homo sapiens, UniProt Q92769); experiment: Inhibition of full-length recombinant human C-terminal GST tagged HDAC2 expressed in Sf9 insect cells using aminoluciferin peptide substrate at 100 nM preincubated for 3 hrs followed by substrate addition and measured after 30 mins by HDAC-Glo I/II chemiluminescence assay; settings: time 3.5 hrs
Sequence (Q92769 whole entry): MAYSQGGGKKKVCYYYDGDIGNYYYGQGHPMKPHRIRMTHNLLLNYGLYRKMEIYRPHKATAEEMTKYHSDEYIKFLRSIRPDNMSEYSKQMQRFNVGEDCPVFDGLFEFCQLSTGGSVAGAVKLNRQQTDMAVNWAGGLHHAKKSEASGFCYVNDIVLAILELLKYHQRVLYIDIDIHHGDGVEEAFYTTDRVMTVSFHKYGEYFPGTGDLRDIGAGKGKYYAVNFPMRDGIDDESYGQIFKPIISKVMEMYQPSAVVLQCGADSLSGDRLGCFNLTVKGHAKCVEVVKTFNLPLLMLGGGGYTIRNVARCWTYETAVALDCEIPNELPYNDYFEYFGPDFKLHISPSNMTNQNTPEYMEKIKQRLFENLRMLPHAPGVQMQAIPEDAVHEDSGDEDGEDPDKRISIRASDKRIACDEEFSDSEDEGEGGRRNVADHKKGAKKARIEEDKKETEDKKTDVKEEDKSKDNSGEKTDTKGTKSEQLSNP

In order of falling inhibition:
1. Nc1ccc(-c2cccs2)cc1NC(=O)c1ccc(-c2cn(CC(=O)Nc3ccc(F)cc3)nn2)cc1  50%
2. Nc1ccc(-n2cc(-c3ccc(C(=O)Nc4cc(-c5cccs5)ccc4N)s3)nn2)cc1  44%
3. Nc1ccc(-c2ccc(F)cc2)cc1NC(=O)CCc1cn(Cc2ccc(C(=O)O)cc2)nn1  39%
4. Nc1ccc(-c2ccsc2)cc1NC(=O)CCc1cn(CCc2cccc([N+](=O)[O-])c2)nn1  36%
5. Nc1ccc(-c2cccs2)cc1NC(=O)c1cccc(-c2cn(Cc3nc4ccccc4[nH]3)nn2)c1  32%
6. Nc1ccc(-c2cccs2)cc1NC(=O)CCc1cn(Cc2ccc3ccccc3c2)nn1  30%
7. Nc1ccc(-c2ccccc2)cc1NC(=O)CCc1cn(CCc2cccc([N+](=O)[O-])c2)nn1  30%
8. Cc1csc(CCn2cc(CCC(=O)Nc3cc(-c4ccccc4)ccc3N)nn2)n1  29%
9. Nc1ccc(-c2ccccc2)cc1NC(=O)CCc1cn(Cc2ccc(C(=O)O)cc2)nn1  27%
10. COc1ccc(Cn2cc(C(=O)Nc3cc(-c4ccsc4)ccc3N)nn2)cc1  25%
11. Cc1csc(CCn2cc(-c3cccc(C(=O)Nc4cc(-c5cccs5)ccc4N)c3)nn2)n1  24%
12. Nc1ccc(-c2ccc(F)cc2)cc1NC(=O)c1cn(CCCCCCC(=O)O)nn1  23%
13. Nc1ccc(-c2cccs2)cc1NC(=O)c1ccc(-c2cn(CCc3ccc([N+](=O)[O-])cc3)nn2)s1  23%
14. Nc1ccc(-c2cccs2)cc1NC(=O)c1ccc(-c2cn(CCc3cccc(F)c3)nn2)cc1  22%
15. Cc1cccc(C)c1NC(=O)Cn1cc(C(=O)Nc2cc(-c3cccs3)ccc2N)nn1  21%
16. Nc1ccc(-n2cc(CCC(=O)Nc3cc(-c4ccc(F)cc4)ccc3N)nn2)cc1  21%
17. COc1ccccc1CCn1cc(-c2ccc(C(=O)Nc3cc(-c4cccs4)ccc3N)s2)nn1  20%
18. Nc1ccc(-c2ccc(F)cc2)cc1NC(=O)c1cn(CCc2cccc([N+](=O)[O-])c2)nn1  20%
19. Nc1ccc(-c2cccs2)cc1NC(=O)c1ccc(-c2cn(-c3ccc(O)cc3)nn2)s1  20%
20. Nc1ccc(-c2cccs2)cc1NC(=O)c1ccc(-c2cn(CCc3ccc(Cl)cc3)nn2)cc1  18%
21. Nc1ccc(-c2ccccc2)cc1NC(=O)CCc1cn(CC(=O)c2ccccc2)nn1  18%
22. Nc1ccc(-n2cc(CCC(=O)Nc3cc(-c4ccccc4)ccc3N)nn2)cc1  18%
23. Cc1ccc(CCn2cc(CCC(=O)Nc3cc(-c4cccnc4)ccc3N)nn2)cc1  18%
24. Cc1cccc(C)c1NC(=O)Cn1cc(CCC(=O)Nc2cc(-c3ccc(F)cc3)ccc2N)nn1  18%
25. Cc1cccc(C)c1NC(=O)Cn1cc(CCC(=O)Nc2cc(-c3ccsc3)ccc2N)nn1  18%
26. Nc1ccc(-c2ccsc2)cc1NC(=O)CCc1cn(-c2ccc(O)cc2)nn1  16%
27. COc1ccc(-n2cc(C(=O)Nc3cc(-c4ccc(F)cc4)ccc3N)nn2)cc1  16%
28. Nc1ccc(-c2cccs2)cc1NC(=O)CCc1cn(CS(=O)(=O)c2ccccc2)nn1  15%
29. Nc1ccc(-c2cccnc2)cc1NC(=O)CCc1cn(CCCc2ccccc2)nn1  15%
30. Nc1ccc(-c2cccnc2)cc1NC(=O)CCc1cn(CCc2cccc(C(F)(F)F)c2)nn1  13%
31. Nc1ccc(-c2cccnc2)cc1NC(=O)CCc1cn(CCc2cccc3ccccc23)nn1  13%
32. Nc1ccc(-c2ccc(F)cc2)cc1NC(=O)CCc1cn(CS(=O)(=O)c2ccccc2)nn1  13%
33. Nc1ccc(-c2cccs2)cc1NC(=O)CCc1cn(CC(=O)c2ccccc2)nn1  13%
34. Nc1ccc(-c2ccc(F)cc2)cc1NC(=O)c1cn(CCc2ccc([N+](=O)[O-])cc2)nn1  12%
35. Nc1ccc(-c2cccnc2)cc1NC(=O)CCc1cn(Cc2cccc3ccccc23)nn1  12%
36. Nc1ccc(-c2ccsc2)cc1NC(=O)CCc1cn(CCc2ccccc2Cl)nn1  11%
37. Nc1ccc(-c2cccs2)cc1NC(=O)CCc1cn(CCc2ccc(F)cc2)nn1  11%
38. Nc1ccc(-c2ccccc2)cc1NC(=O)c1cn(Cc2nc3ccccc3[nH]2)nn1  11%
39. Nc1ccc(-n2cc(C(=O)Nc3cc(-c4cccs4)ccc3N)nn2)cc1  10%
40. Nc1ccc(-c2ccc(F)cc2)cc1NC(=O)c1cn(CCN2CCOCC2)nn1  10%
41. Nc1ccc(-c2cccs2)cc1NC(=O)CCc1cn(CC23CC4CC(CC(C4)C2)C3)nn1  9%
42. Nc1ccc(-c2ccsc2)cc1NC(=O)c1cn(CCCCCCC(=O)O)nn1  8%
43. Cc1ccc(CCn2cc(C(=O)Nc3cc(-c4ccsc4)ccc3N)nn2)cc1  8%
44. Nc1ccc(-c2cccs2)cc1NC(=O)c1cn(C[S+]([O-])c2ccccc2)nn1 (stereo unspecified)  8%
45. Nc1ccc(-c2ccc(F)cc2)cc1NC(=O)c1cn(CS(=O)(=O)c2ccccc2)nn1  7%
46. Nc1ccc(-c2ccc(F)cc2)cc1NC(=O)c1cn(-c2ccc(I)cc2)nn1  7%
47. Nc1ccc(-c2cccs2)cc1NC(=O)CCc1cn(CCc2ccccn2)nn1  7%
48. Nc1ccc(-c2cccs2)cc1NC(=O)CCc1cn(CCCCCC(=O)O)nn1  6%
49. Cc1csc(CCn2cc(CCC(=O)Nc3cc(-c4cccnc4)ccc3N)nn2)n1  6%
50. Nc1ccc(-c2cccs2)cc1NC(=O)c1ccc(-c2cn(CCc3ccccc3Cl)nn2)cc1  5%
51. Nc1ccc(-c2ccc(F)cc2)cc1NC(=O)CCc1cn(CCCCCc2ccccc2)nn1  5%
52. Nc1ccc(-c2cccs2)cc1NC(=O)c1cn(CCc2ccccc2Cl)nn1  3%
53. Nc1ccc(-c2cccnc2)cc1NC(=O)CCc1cn(CCc2ccc(F)cc2)nn1  3%
54. Nc1ccc(-c2ccsc2)cc1NC(=O)CCc1cn(Cc2cc3ccccc3s2)nn1  3%
55. Nc1ccc(-c2ccsc2)cc1NC(=O)c1cn(-c2ccc(O)cc2)nn1  2%
56. CCc1ccc(Cn2cc(-c3ccc(C(=O)Nc4cc(-c5cccs5)ccc4N)s3)nn2)cc1  2%
57. Cc1cccc(CCn2cc(C(=O)Nc3cc(-c4ccccc4)ccc3N)nn2)c1  1%
58. Nc1ccc(-c2cccnc2)cc1NC(=O)CCc1cn(-c2ccc(I)cc2)nn1  1%
59. Nc1ccc(-c2ccsc2)cc1NC(=O)CCc1cn(CCCCCCCC(=O)O)nn1  1%
60. Nc1ccc(-c2cccs2)cc1NC(=O)c1ccc(-c2cn(Cc3ccc(-c4ccccc4)cc3)nn2)s1  0%
61. Nc1ccc(-c2ccc(F)cc2)cc1NC(=O)c1cn(CCc2cccc(Cl)c2)nn1  0%
62. Nc1ccc(-c2cccs2)cc1NC(=O)c1ccc(-c2cn(CCc3cccc(C(F)(F)F)c3)nn2)s1  0%
63. Nc1ccc(-c2cccs2)cc1NC(=O)c1cn(-c2ccc(I)cc2)nn1  0%
64. Nc1ccc(-c2ccsc2)cc1NC(=O)c1cn(Cc2cccc(C(=O)O)c2)nn1  0%
65. Nc1ccc(-c2ccsc2)cc1NC(=O)CCc1cn(Cc2cccc(-c3ccccc3)c2)nn1  0%
66. Nc1ccc(-c2ccccc2)cc1NC(=O)c1cn(CCc2ccccc2Cl)nn1  0%
67. Nc1ccc(-c2cccs2)cc1NC(=O)c1ccc(-c2cn(-c3ccccc3-c3ccccc3)nn2)cc1  0%
68. Nc1ccc(-c2ccsc2)cc1NC(=O)c1cn(CCCCC(=O)O)nn1  0%
69. Nc1ccc(-c2cccs2)cc1NC(=O)c1cn(CCc2ccc(F)cc2)nn1  0%
70. Nc1ccc(-c2cccs2)cc1NC(=O)c1ccc(-c2cn(Cc3ccc(Oc4ccccc4)cc3)nn2)s1  0%
71. Nc1ccc(-c2ccsc2)cc1NC(=O)c1cn(Cc2ccc(Oc3ccccc3)cc2)nn1  0%
72. Nc1ccc(-c2cccs2)cc1NC(=O)c1ccc(-c2cn(CCc3cccc4ccccc34)nn2)cc1  0%
73. Nc1ccc(-c2ccsc2)cc1NC(=O)c1cn(CCN2CCOCC2)nn1  0%
74. Nc1ccc(-c2cccnc2)cc1NC(=O)CCc1cn(CCC2CCCC2)nn1  0%
75. Nc1ccc(-c2ccccc2)cc1NC(=O)CCc1cn(-c2ccc(Br)cc2)nn1  0%
76. Nc1ccc(-c2ccccc2)cc1NC(=O)c1cn(-c2ccc(I)cc2)nn1  0%
77. Nc1ccc(-c2cccnc2)cc1NC(=O)CCc1cn(CCCCCC(=O)O)nn1  0%
78. Nc1ccc(-c2ccsc2)cc1NC(=O)CCc1cn(CCCCC(=O)O)nn1  0%
79. Nc1ccc(-c2cccs2)cc1NC(=O)c1cccc(-c2cn(CCCCCc3ccccc3)nn2)c1  0%
80. Nc1ccc(-c2ccsc2)cc1NC(=O)CCc1cn(CC2CCCCC2)nn1  0%
81. Nc1ccc(-c2ccsc2)cc1NC(=O)c1cn(-c2ccccc2-c2ccccc2)nn1  0%
82. Nc1ccc(-c2ccccc2)cc1NC(=O)c1cn(CCCCC(=O)O)nn1  0%
83. Nc1ccc(-c2ccc(F)cc2)cc1NC(=O)CCc1cn(CCC2CCCC2)nn1  0%
84. Nc1ccc(-c2ccccc2)cc1NC(=O)CCc1cn(-c2ccc([N+](=O)[O-])cc2)nn1  0%
85. Nc1ccc(-c2cccs2)cc1NC(=O)c1cccc(-c2cn(CCc3cccc(F)c3)nn2)c1  0%
86. Nc1ccc(-c2cccs2)cc1NC(=O)c1cccc(-c2cn(CCC3CCCCC3)nn2)c1  0%
87. Nc1ccc(-c2ccsc2)cc1NC(=O)c1cn(CCc2cccc(C(F)(F)F)c2)nn1  0%
88. CCc1ccc(Cn2cc(-c3ccc(C(=O)Nc4cc(-c5cccs5)ccc4N)cc3)nn2)cc1  0%
89. Nc1ccc(-c2ccsc2)cc1NC(=O)CCc1cn(-c2ccc(I)cc2)nn1  0%
90. Nc1ccc(-c2ccccc2)cc1NC(=O)c1cn(CCc2ccsc2)nn1  0%
91. Cc1ccccc1CCn1cc(C(=O)Nc2cc(-c3ccsc3)ccc2N)nn1  0%
92. Nc1ccc(-c2ccsc2)cc1NC(=O)c1cn(-c2ccc(I)cc2)nn1  0%
93. Cc1ccccc1CCn1cc(C(=O)Nc2cc(-c3cccs3)ccc2N)nn1  0%
94. Cc1ccc(-n2cc(C(=O)Nc3cc(-c4ccccc4)ccc3N)nn2)cc1C  0%
95. Nc1ccc(-c2ccccc2)cc1NC(=O)c1cn(CCC2CCCCC2)nn1  0%
96. Nc1ccc(-c2cccs2)cc1NC(=O)c1ccc(-c2cn(Cc3ccc(OC(F)(F)F)cc3)nn2)s1  0%

— ChEMBL document CHEMBL5390237, “Discovery of Selective Histone Deacetylase 1 and 2 Inhibitors: Screening of a Focused Library Constructed by Click Chemistry, Kinetic Binding Analysis, and Biological Evaluation” (J Med Chem, 2023)
